Measurements as given in PMC6689897, “Drugging an undruggable pocket on KRAS” (Proceedings of the National Academy of Sciences of the …, 2019).

System: NCI-H358 cells
Assay: 2D proliferation assay
Format: cell-based, human
Details: standard 2D culture conditions
Protocol: 263 (ATCC® CCL-224™; grown in RPMI 10% FCS) and SK-MEL-28 (ATCC® HTB-
264 72™, grown in EMEM 10% FCS). Cell cultures were incubated at 37 °C and 5% CO2 in
265 a humidified atmosphere, with medium change or subcultivation 2-3 times a week.
269 Cells were lysed in 1x lysis buffer (Cell Signaling #9803) and protein concentration
270 normalized to 10µg/µL. Proteins were separated by SDS-Page and transferred to
271 Nitrocellulose membranes (BioRad) according to standard protocols. Membranes were
273 (Milipore #06-182) and Tubulin (Cell Signaling #2144) in 5% BSA in TBST blocking
274 buffer. After primary antibody incubation membranes were incubated with anti-rabbit
275 IgG secondary antibody (Dako #P0448) and detected with ECL (GE Healthcare Life
278 Compound treatment of cells
279 Synthesized or purchased (ARS 1620) compounds were dissolved in 100% DMSO and
280 stored at a concentration of 10mM at -20°C. Compounds were either serially diluted in
281 medium or directly added to reach the intended final concentration. DMSO was added
282 to control reactions as reference to keep the final DMSO concentration in all samples
285 2D proliferation assay: […]
Quantification of living cells […]
291 manufacturer’s recommendation. Luminescence was read in a 2030 VICTOR X5 (Perkin […]
305 were trypsinized, counted and plated in 60 µL culture medium containing 2% FCS […]

Cn1cnc(Cn2ccc3ccc(CNCc4[nH]c5ccccc5c4[C@H]4NC(=O)c5ccc(O)cc54)cc32)c1 [Compound 1]
antiproliferative effect: No antiproliferative effect
